Like-named read-outs stand apart in the source and are kept apart here.
Legend:
Rac-1 = Rac-1 (Homo sapiens (Human), UniProt P63000); assay: Ras GTP Binding Domain Inhibition Assay, Rac-1
Method in brief: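 Fluorescent GTP binding to plate-captured His-tagged Ras: compound 20 μM (or dilution series for IC50), 3 h RT, ±Sos GEF 10-30 μg/mL last hour; then 100 nM Cy3/Cy5-GTP 45 min RT, wash ×3, read bound label.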

Smad2/3 phosphorylation = assay: Phospho-Smad2/3 Inhibition Assay in Panc-1 (western blot); format: cell-based; details: Homo sapiens; 10 μM, 3 hours; PANC-1 stimulated with 10 ng/ml TGF-b1 for 1 hour; read-out: % inh of Smad2/3 phosphorylation in PANC-1
Method in brief: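 Serum-starved cells (0.5% FBS overnight) pretreated 3 h at 37 °C with compound at 10 μM or serial dilutions for IC50, in 0.3% DMSO. TGF-b1 10 ng/ml stimulation: 1 h for Panc-1 (human), 20 min for C2C12 (mouse). Phospho-Smad2 (Ser465/467) and phospho-Smad3 (Ser423/425) measured by western blot of lysates.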

KRas wild type = KRas wild type (Homo sapiens (Human), UniProt P01116); assay: Ras GTP Binding Domain Inhibition Assay, KRas wild type
Method in brief: (§1)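 His-tagged KRas proteins coated on nickel plates overnight at 4° C in Tris buffer (pH 7.4 or 7.0, MgCl2, DTT); compounds at 20 μM final (or serial dilutions for IC50) for 3 h at room temperature, ±Sos (residues 556-1049) in final hour. Bound Cy3- or Cy5-GTP (100 nM, 45 min) read by fluorescence after washing.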

KRas G12D mutant = KRas G12D mutant (Homo sapiens (Human), UniProt P01116, G12D); assay: Ras GTP Binding Domain Inhibition Assay, KRas G12D mutant; details: for inhibition at 20 µM: Table 7; for KRas G12D mutant + SOS: % inh. / KRas G12D mutant: % inh.: 20 uM, Table 8
Method in brief: as §1

KRas G12C mutant = KRas G12C mutant (Homo sapiens (Human), UniProt P01116, G12C); assay: Ras GTP Binding Domain Inhibition Assay, KRas G12C mutant
Method in brief: as §1

[1] = without SOS, read-out: Rac-1: % inh.
[2] = + SOS, read-out: KRas wild type + SOS: % inh.
[3] = without SOS, read-out: KRas wild type: % inh.
[4] = + SOS, read-out: KRas G12D mutant + SOS: % inh.
[5] = without SOS, read-out: KRas G12D mutant: % inh.
[6] = + SOS, read-out: KRas G12C mutant + SOS: % inh.
[7] = without SOS, read-out: KRas G12C mutant: % inh.

Chain of KRas G12C mutant (P01116 other isoform, or with tags, fused parts or gaps G12C): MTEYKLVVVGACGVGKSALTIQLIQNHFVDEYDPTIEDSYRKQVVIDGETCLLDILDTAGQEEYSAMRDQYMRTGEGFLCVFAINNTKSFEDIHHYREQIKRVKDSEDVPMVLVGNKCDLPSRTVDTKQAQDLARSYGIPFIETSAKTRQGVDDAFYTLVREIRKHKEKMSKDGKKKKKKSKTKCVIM
Chain of KRas G12D mutant (P01116 other isoform, or with tags, fused parts or gaps G12D): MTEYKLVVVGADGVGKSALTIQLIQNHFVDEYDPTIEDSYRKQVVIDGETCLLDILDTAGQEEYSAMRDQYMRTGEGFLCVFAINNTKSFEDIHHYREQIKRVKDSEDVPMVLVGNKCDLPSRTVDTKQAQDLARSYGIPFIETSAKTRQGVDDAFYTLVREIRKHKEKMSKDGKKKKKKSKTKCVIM
Chain of KRas wild type (P01116 other isoform, or with tags, fused parts or gaps): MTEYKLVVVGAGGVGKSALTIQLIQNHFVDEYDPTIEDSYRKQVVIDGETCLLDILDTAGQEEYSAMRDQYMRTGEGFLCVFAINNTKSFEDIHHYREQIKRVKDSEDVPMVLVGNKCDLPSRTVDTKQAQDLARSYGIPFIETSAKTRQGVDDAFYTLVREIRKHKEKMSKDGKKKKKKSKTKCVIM

Structure (SMILES)	inhibition at 20 µM (Rac-1; [1]) [%]	inhibition at 10 µM (Smad2/3 phosphorylation) [%]	inhibition at 20 µM (KRas wild type; [2]) [%]	inhibition at 20 µM (KRas wild type; [3]) [%]	inhibition at 20 µM (KRas G12D mutant; [4]) [%]	KRas G12D mutant + SOS: % inh. (KRas G12D mutant; + SOS)	inhibition at 20 µM (KRas G12D mutant; [5]) [%]	KRas G12D mutant: % inh. (KRas G12D mutant; without SOS)	inhibition at 20 µM (KRas G12C mutant; [6]) [%]	inhibition at 20 µM (KRas G12C mutant; [7]) [%]	inhibition at 20 µM (Rac-1; + SOS, read-out: Rac-1 + SOS: % inh.) [%]
Cc1c(-c2ccn(C(C)C)n2)sc2nc(-c3nccn3C)nc(NCC3CCCO3)c12 (racemic) [Compound 26, rac-6-(1-Isopropyl-1H-pyrazol-3-yl)-5-methyl-2-(1-methyl-1H-imidazol-2-yl)-N-((tetrahydrofuran-2-yl)methyl)thieno[2,3-d]pyrimidin-4-amine]	46 to 75	0	76 to 100	76 to 100	46 to 75	C (C = 46-75% inhibition)	76 to 100	D (D = 76-100% inhibition)	76 to 100	76 to 100	
COCCCOc1nc(-c2nccn2C)nc2sc(-c3ccn(C(C)C)n3)c(C)c12 [Compound 32, 6-(1-Isopropyl-1H-pyrazol-3-yl)-4-(3-methoxypropoxy)-5-methyl-2-(1-methyl-1H-imidazol-2-yl)thieno[2,3-d]pyrimidine]	0	0	76 to 100	76 to 100	46 to 75	C (C = 46-75% inhibition)	46 to 75	C (C = 46-75% inhibition)	46 to 75	46 to 75	
COc1cccc(-c2sc3nc(-c4nccn4C)nc(NC4CCC(OC)C4)c3c2C)c1F (racemic) [Compound 10, rac-6-(2-Fluoro-3-methoxyphenyl)-N-((1R,3S)-3-methoxycyclopentyl)-5-methyl-2-(1-methyl-1H-imidazol-2-yl)thieno[2,3-d]pyrimidin-4-amine and rac-6-(2-Fluoro-3-methoxyphenyl)-N-((1R,3R)-3-methoxycyclopentyl)-5-methyl-2-(1-methyl-1H-imidazol-2-yl)thieno[2,3-d]pyrimidin-4-amine]	46 to 75	1 to 25	46 to 75	46 to 75	46 to 75	C (C = 46-75% inhibition)	76 to 100	D (D = 76-100% inhibition)	46 to 75	76 to 100	46 to 75
COCCNc1nc(-c2nccn2C)nc2sc(-c3ccccc3)c(-c3ccccc3Cl)c12 [Compound 4, 5-(2-Chlorophenyl)-N-(2-methoxyethyl)-2-(1-methyl-1H-imidazol-2-yl)-6-phenylthieno[2,3-d]pyrimidin-4-amine]	26 to 45	26 to 45		1 to 25			26 to 45	B (B = 26-45% inhibition)		26 to 45	
COCCCCn1c(-c2nccn2C)nc2sc(-c3ccn(C(C)C)n3)c(C)c2c1=O [Compound 33, 6-(1-Isopropyl-1H-pyrazol-3-yl)-3-(4-methoxybutyl)-5-methyl-2-(1-methyl-1H-imidazol-2-yl)thieno[2,3-d]pyrimidin-4(3H)-one]	0	0	1 to 25	0	0	0 (0 = 0% inhibition)	0	0 (0 = 0% inhibition)	1 to 25	0	
COCCOc1nc(-c2nccn2C)nc2sc(-c3ccn(C(C)C)n3)c(C)c12 [Compound 30, 6-(1-Isopropyl-1H-pyrazol-3-yl)-4-(2-methoxyethoxy)-5-methyl-2-(1-methyl-1H-imidazol-2-yl)thieno[2,3-d]pyrimidine]	0	0	0	1 to 25	0	0 (0 = 0% inhibition)	0	0 (0 = 0% inhibition)	0	1 to 25	
COc1cc(-c2sc3nc(-c4nccn4C)nc(N[C@H]4C[C@H](OC)C4)c3c2-c2ccccc2)ccn1 [Compound 46, N-((1r,3r)-3-Methoxycyclobutyl)-6-(2-methoxypyridin-4-yl)-2-(1-methyl-1H-imidazol-2-yl)-5-phenylthieno[2,3-d]pyrimidin-4-amine]	46 to 75	76 to 100	76 to 100	46 to 75	46 to 75	C (C = 46-75% inhibition)	46 to 75	C (C = 46-75% inhibition)	76 to 100	26 to 45	
COCCn1c(-c2nccn2C)nc2sc(-c3ccn(C(C)C)n3)c(C)c2c1=O [Compound 29, 6-(1-Isopropyl-1H-pyrazol-3-yl)-3-(2-methoxyethyl)-5-methyl-2-(1-methyl-1H-imidazol-2-yl)thieno[2,3-d]pyrimidin-4(3H)-one]	0	0	76 to 100	76 to 100	46 to 75	C (C = 46-75% inhibition)	46 to 75	C (C = 46-75% inhibition)	76 to 100	46 to 75	
COc1cccc(-c2sc3nc(-c4nccn4C)nc(N[C@@H]4CC[C@@H](OC)C4)c3c2C)c1F (racemic) [Compound 43, rac-6-(2-Fluoro-3-methoxyphenyl)-N-((1R,3R)-3-methoxycyclopentyl)-5-methyl-2-(1-methyl-1H-imidazol-2-yl)thieno[2,3-d]pyrimidin-4-amine]	1 to 25	76 to 100	76 to 100	26 to 45	76 to 100	D (D = 76-100% inhibition)	1 to 25	A (A = 1-25% inhibition)	76 to 100	26 to 45	
COCCOCCNc1nc(-c2nccn2C)nc2sc(-c3ccn(C(C)C)n3)c(C)c12 [Compound 21, 6-(1-Isopropyl-1H-pyrazol-3-yl)-N-(2-(2-methoxyethoxy)ethyl)-5-methyl-2-(1-methyl-1H-imidazol-2-yl)thieno[2,3-d]pyrimidin-4-amine]	76 to 100	0	76 to 100	76 to 100	76 to 100	D (D = 76-100% inhibition)	76 to 100	D (D = 76-100% inhibition)	76 to 100	46 to 75	
COCCCCOc1nc(-c2nccn2C)nc2sc(-c3ccn(C(C)C)n3)c(C)c12 [Compound 34, 6-(1-Isopropyl-1H-pyrazol-3-yl)-4-(4-methoxybutoxy)-5-methyl-2-(1-methyl-1H-imidazol-2-yl)thieno[2,3-d]pyrimidine]	0	0	0	1 to 25	0	0 (0 = 0% inhibition)	1 to 25	A (A = 1-25% inhibition)	1 to 25	0	
COCC1(OC)CCN(c2nc(-c3nccn3C)nc3sc(-c4ccn(C(C)C)n4)c(C)c23)C1 (racemic) [Compound 27, rac-6-(1-Isopropyl-1H-pyrazol-3-yl)-4-(3-methoxy-3-(methoxymethyl)pyrrolidin-1-yl)-5-methyl-2-(1-methyl-1H-imidazol-2-yl)thieno[2,3-d]pyrimidine]	1 to 25	0	76 to 100	76 to 100	76 to 100	D (D = 76-100% inhibition)	46 to 75	C (C = 46-75% inhibition)	76 to 100	76 to 100	
